Read-outs that look alike come from different tables or passages of the source.
Columns and labels:
[1] = Total antioxidant capacity (TAC) colorimetric assay; settings: for Fold-Increase Over Trolox: coefficient of compound model divided by coefficient of Trolox control; for total antioxidant capacity compared with the control (Trolox): in words; for Slope (in Trolox Equivalents): linear regression of dose-response, 7 concentrations, Cu2+ reagent, 1.5 h, absorbance 570 nm
Experimental: The antioxidant capacity of the phenolic compounds was evaluated using a total antioxidant capacity (TAC) colorimetric assay kit (K274-100, BioVision, CA, USA), according to the manufacturer’s instructions. Briefly, the phenolic compounds tested at 7 concentrations (as described above) were added to 384-well plates. Subsequently, Cu^2+ working solution (12.5 µL/ well) was added into the sample wells. The 384-well plates were incubated for 1.5 h at room temperature and the absorbance of the samples was then read at 570 nm using a microplate reader (Enspire, Perkin Elmer Inc., Waltham, MA, USA). Trolox was used to standardize the antioxidant capacity, as recommended by the manufacturer. A Trolox standard curve was included, and the total antioxidant capacity of the phenolic compounds was interpolated and expressed as Trolox equivalent (mM) from a seven-parameter logistic curve of the Trolox control using curve-fitting software.
For total antioxidant capacity analysis, linear regression analysis was performed to identify the linear regression equation for each compound using GraphPad Prism 8 (San Diego, CA, USA). The coefficient of the compound equation was compared with the coefficient of the Trolox control to determine the relative total antioxidant capacity of each compound. Fold-increase over Trolox was calculated by dividing the coefficient of the compound models by the coefficient of the Trolox control.

[2] = test system: tumorigenic alveolar epithelial cells (A549); assay: Cell proliferation assay (CellTiter-Glo), A549; format: cell-based, human; settings: read-out: Half maximal inhibitory concentration (IC50), A549 Cell Line
Experimental: (§1) An Nrf2 antioxidant response element (ARE) reporter HepG2 cell line, a stably transfected liver cell line expressing a firefly luciferase gene under the control of the ARE, was purchased from BPS Bioscience (San Diego, CA, USA). The human alveolar epithelial cell line A549 and the human lung fibroblast cell line MRC-5 were obtained from American Type Culture Collection (ATCC) (CCL-185 and CCL-171, ATCC, Manassas, VA, USA). The HepG2-ARE cells were grown in modified Eagle’s medium (MEM) supplemented with GlutaMAX, 10% fetal calf serum (FBS) and 600ug/mL Geneticin (Thermo Fisher Scientific, Waltham, MA, USA). […] All cells were grown and maintained at 37 °C in a humidified incubator with 5% CO2. Influence of the phenolic compounds on cell growth in the tumorigenic alveolar epithelial cells (A549) and non-tumorigenic lung fibroblast cell (MRC-5) cell lines was investigated using the CellTiter-Glo® cell viability assay kit (G7571, BioVision, CA, USA), according to the manufacturer’s instructions. […] The cultures were treated with the phenolic compounds and DL-Sulphorane (a known antiproliferative agent as a positive control) at 7 final concentrations (as mentioned above) and a vehicle (0.35% DMSO). After 72h of incubation, CellTiter-Glo Luminescent assay reagent (Promega) was dispensed at a volume of 10 µL per well into the 384-well plates for 10 min using the Matrix Wellmate dispenser (Thermo Fisher Scientific). The plates were allowed to incubate at room temperature for 20 min and then the luminescence was read using an Enspire microplate reader (Perkin Elmer Inc.) The relative cytotoxicity (%) of the phenolic compounds was calculated by dividing the specific luminescence absorbance of the treated sampled by the specific luminescence absorbance of the control sample and multiplying by 100. The control sample (in the presence of DMSO vehicle and without the compounds) was set at 100%. Non-linear regression analysis of data was performed to identify the dose-response curve for each compound. The IC50 values (half maximal inhibitory concentration) of each compound were determined from the dose-response curve for the A549 and MRC-5 cell lines using GraphPad Prism 8.

[3] = test system: non-tumorigenic lung fibroblast cells (MRC-5); assay: Cell proliferation assay (CellTiter-Glo), MRC-5; format: cell-based, human; settings: read-out: Half maximal inhibitory concentration (IC50), MRC-5 Cell Line
Experimental: as §1

[4] = test system: antioxidant response element (ARE) in HepG2-ARE cells; assay: Antioxidant response element (ARE) activation, Steady-Glo luciferase reporter assay; format: cell-based, human; settings: at high concentrations; did not induce ARE activation
Experimental: An Nrf2 antioxidant response element (ARE) reporter HepG2 cell line, a stably transfected liver cell line expressing a firefly luciferase gene under the control of the ARE, was purchased from BPS Bioscience (San Diego, CA, USA). The human alveolar epithelial cell line A549 and the human lung fibroblast cell line MRC-5 were obtained from American Type Culture Collection (ATCC) (CCL-185 and CCL-171, ATCC, Manassas, VA, USA). The HepG2-ARE cells were grown in modified Eagle’s medium (MEM) supplemented with GlutaMAX, 10% fetal calf serum (FBS) and 600ug/mL Geneticin (Thermo Fisher Scientific, Waltham, MA, USA). The tumorigenic alveolar epithelial cells (A549) and non-tumorigenic lung fibroblast cells (MRC-5) were grown in RPMI medium supplemented with 10% FBS. All cells were grown and maintained at 37 °C in a humidified incubator with 5% CO2.
The impact of the phenolic compounds on ARE activation in the HepG2-ARE cell line was evaluated using Steady-Glo® Luciferase assay system (E2510, Promega, Madison, WI, USA), following the manufacturer’s instructions. In brief, the HepG2 -ARE cells were seeded at a density of 10,000 cells/well in 384-well plates containing 50 µL of the complete media per well using a Multidrop Combi dispenser (Thermo Fisher Scientific, Waltham, MA, USA) and then the plate cultures were incubated at 37 °C in a 5% CO2 humidified incubator for 20 h. The HepG2-ARE cells were incubated with compounds for 18 h. The known ARE activator TBHQ was used as a positive control and the cells treated with 0.35% DMSO and without compounds tested served as a vehicle control. The cells in the absence of DMSO and the compounds were utilized for measuring the background luminescence. The reporter activity was measured by the addition of 25 µL Steady-Glo® luciferase assay reagent (Promega) for 30 min using the Multidrop Combi dispenser (Thermo Fisher Scientific). The luminescence intensities of the 384-well plates were read on Enspire microplate reader (Perkin Elmer Inc.). Percent cytotoxicity of compounds was normalized to the positive and negative controls on each assay plate.
The ARE fold induction of the compounds was measured by dividing the luminescence absorbance of the treatment by the specific luminescence absorbance of the control sample and multiplying by 100. The control sample (in the presence of DMSO vehicle and without the compounds) was set at 100%.

[5] = Homo sapiens, A549, 72 h incubation
[6] = Homo sapiens, MRC5, 72 h incubation

Compound: COc1cc(C(=O)O)cc(OC)c1O [Syringic acid]
- Fold-Increase Over Trolox [1]: 1.1
- total antioxidant capacity compared with the control (Trolox) [1]: higher
- Slope (in Trolox Equivalents) [1]: 0.001088 ± 1.057 × 10^−5
- IC50 [2, 5]: > 250 µM
- IC50 [3, 6]: > 250 µM

Compound: C[C@@H]1O[C@@H](O[C@H]2[C@H](Oc3cc(O)c4c(c3)O[C@H](c3ccc(O)cc3)CC4=O)O[C@H](CO)[C@@H](O)[C@@H]2O)[C@H](O)[C@H](O)[C@H]1O [Naringin]
- Fold-Increase Over Trolox [1]: 0.5
- total antioxidant capacity compared with the control (Trolox) [1]: lower
- Slope (in Trolox Equivalents) [1]: 0.0005177 ± 9.755 × 10^−6
- IC50 [2, 5]: > 250 µM
- IC50 [3, 6]: > 250 µM

Compound: O=c1oc2c(O)c(O)cc3c(=O)oc4c(O)c(O)cc1c4c23 [Ellagic acid]
- Fold-Increase Over Trolox [1]: 0.5
- total antioxidant capacity compared with the control (Trolox) [1]: lower
- Slope (in Trolox Equivalents) [1]: 0.0005183 ± 2.860 × 10^−5
- IC50 [2, 5]: > 250 µM
- IC50 [3, 6]: > 250 µM

Compound: O=C(O)c1ccc(O)cc1 [p-Hydroxybenzoic acid]
- total antioxidant capacity compared with the control (Trolox) [1]: lower
- Slope (in Trolox Equivalents) [1]: −0.000008 ± 1.260 × 10^−5
- IC50 [2, 5]: > 250 µM
- IC50 [3, 6]: > 250 µM

Compound: O=c1c(O)c(-c2ccc(O)c(O)c2)oc2cc(O)cc(O)c12 [Quercetin]
- Fold-Increase Over Trolox [1]: 4.0
- total antioxidant capacity compared with the control (Trolox) [1]: higher
- Slope (in Trolox Equivalents) [1]: 0.004045 ± 1.392 × 10^−4
- IC50 [2, 5]: 87.7 µM
- IC50 [3, 6]: 99.5 µM

Compound: O=C(O[C@@H]1Cc2c(O)cc(O)cc2O[C@@H]1c1ccc(O)c(O)c1)c1cc(O)c(O)c(O)c1 [Epicatechin gallate]
- Fold-Increase Over Trolox [1]: 4.2
- total antioxidant capacity compared with the control (Trolox) [1]: higher
- Slope (in Trolox Equivalents) [1]: 0.004294 ± 1.570 × 10^−4
- toxicity to HepG2-ARE cells [4]: toxic to cells
- IC50 [2, 5]: 66 µM
- IC50 [3, 6]: 64.4 µM

Compound: COc1cc(/C=C/C(=O)O)ccc1O [Ferulic acid]
- Fold-Increase Over Trolox [1]: 1.8
- total antioxidant capacity compared with the control (Trolox) [1]: higher
- Slope (in Trolox Equivalents) [1]: 0.001775 ± 5.026 × 10^−5
- IC50 ([2]; 72 h incubation): > 250 µM
- IC50 ([3]; 72 h incubation): > 250 µM

Compound: O=C(O)[C@]1(O)C[C@@H](O)[C@@H](O)[C@H](O)C1 [Quinic acid]
- Fold-Increase Over Trolox [1]: <0.1
- total antioxidant capacity compared with the control (Trolox) [1]: lower
- Slope (in Trolox Equivalents) [1]: −0.0000004 ± 1.034 × 10^−6
- IC50 [2, 5]: > 250 µM
- IC50 [3, 6]: > 250 µM

Compound: O=C(O)c1cc(O)c(O)c(O)c1 [Gallic acid]
- total antioxidant capacity compared with the control (Trolox) [1]: higher
- Slope (in Trolox Equivalents) [1]: 0.002541 ± 1.392 × 10^−5
- IC50 [2, 5]: > 250 µM
- IC50 [3, 6]: 48.2 µM

Compound: Cc1c(C)c2c(c(C)c1O)CCC(C)(C(=O)O)O2 (centres unmarked) [Trolox, reference compound]
- Fold-Increase Over Trolox [1]: 1.0
- Slope (in Trolox Equivalents) [1]: 0.001014 ± 1.125 × 10^−5

Compound: C[C@@H]1O[C@@H](OC[C@H]2O[C@@H](Oc3c(-c4ccc(O)c(O)c4)oc4cc(O)cc(O)c4c3=O)[C@H](O)[C@@H](O)[C@@H]2O)[C@H](O)[C@H](O)[C@H]1O [Rutin]
- Fold-Increase Over Trolox [1]: 2.9
- total antioxidant capacity compared with the control (Trolox) [1]: higher
- Slope (in Trolox Equivalents) [1]: 0.002962 ± 1.551 × 10^−4
- IC50 [2, 5]: > 250 µM
- IC50 [3, 6]: > 250 µM

Compound: O=C(O)C=Cc1ccc(O)cc1 [p-Coumaric acid]
- Fold-Increase Over Trolox [1]: 0.3
- total antioxidant capacity compared with the control (Trolox) [1]: lower
- Slope (in Trolox Equivalents) [1]: 0.0003139 ± 1.434 × 10^−5
- IC50 [2, 5]: > 250 µM
- IC50 [3, 6]: > 250 µM

Compound: O=C(OC[C@H]1O[C@@H](OC(=O)c2cc(O)c(O)c(O)c2)[C@H](OC(=O)c2cc(O)c(O)c(O)c2)[C@@H](OC(=O)c2cc(O)c(O)c(O)c2)[C@@H]1OC(=O)c1cc(O)c(O)c(O)c1)c1cc(O)c(O)c(O)c1 [Penta-O-galloyl-β-D-glucose]
- Fold-Increase Over Trolox [1]: 11.5
- total antioxidant capacity compared with the control (Trolox) [1]: higher
- Slope (in Trolox Equivalents) [1]: 0.01167 ± 5.756 × 10^−4
- toxicity to HepG2-ARE cells [4]: toxic to cells
- IC50 ([2]; 72 h incubation): 6.11 µM
- IC50 ([3]; 72 h incubation): 10.4 µM

Compound: COc1cc(C(=O)O)ccc1O [Vanillic acid]
- Fold-Increase Over Trolox [1]: 0.7
- total antioxidant capacity compared with the control (Trolox) [1]: lower
- Slope (in Trolox Equivalents) [1]: 0.0007396 ± 4.245 × 10^−5
- IC50 [2, 5]: > 250 µM
- IC50 [3, 6]: > 250 µM

Compound: Oc1cc(O)c2c(c1)O[C@H](c1ccc(O)c(O)c1)[C@@H](O)C2 [(+)-Catechin]
- Fold-Increase Over Trolox [1]: 2.0
- total antioxidant capacity compared with the control (Trolox) [1]: higher
- Slope (in Trolox Equivalents) [1]: 0.002029 ± 3.184 × 10^−5
- IC50 ([2]; 72 h incubation): > 250 µM
- IC50 ([3]; 72 h incubation): > 250 µM

Compound: C[S+]([O-])CCCCN=C=S (racemic) [DL-Sulforaphane, reference compound]
- IC50 ([2]; 72 h incubation): 17 µM
- IC50 ([3]; 72 h incubation): 9.95 µM
